# Test results reported in ChEMBL document CHEMBL4270672, “Synthesis and Biological Evaluation of Fused Tricyclic Heterocycle Piperazine (Piperidine) Derivatives As Potential Multireceptor Atypical Antipsychotics” (J Med Chem, 2018).
# The source made the active and inactive calls. The calls are words filed in the database; no cut-off is given here.
# Legend:
# [1] = target: 5-hydroxytryptamine receptor 2A (Rattus norvegicus, UniProt P14842); test: Displacement of [3H]-ketanserine from serotonin 5-HT2A receptor in rat brain cortex homogenates incubated for 30 mins by liquid scintillation counting
# Chain of 5-hydroxytryptamine receptor 2A (Rattus norvegicus, UniProt P14842) (P14842 whole entry): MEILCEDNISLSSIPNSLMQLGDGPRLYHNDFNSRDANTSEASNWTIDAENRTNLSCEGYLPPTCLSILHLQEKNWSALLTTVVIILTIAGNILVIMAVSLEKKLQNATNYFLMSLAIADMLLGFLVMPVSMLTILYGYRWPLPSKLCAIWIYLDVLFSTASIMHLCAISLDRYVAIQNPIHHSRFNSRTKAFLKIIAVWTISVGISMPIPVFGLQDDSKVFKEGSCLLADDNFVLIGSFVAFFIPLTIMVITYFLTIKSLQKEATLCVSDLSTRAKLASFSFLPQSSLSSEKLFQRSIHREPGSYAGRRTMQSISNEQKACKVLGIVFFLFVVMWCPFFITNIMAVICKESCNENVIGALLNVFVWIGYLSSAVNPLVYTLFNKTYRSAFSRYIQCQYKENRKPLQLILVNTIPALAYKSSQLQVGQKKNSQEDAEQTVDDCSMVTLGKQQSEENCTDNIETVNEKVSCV
# D(2) dopamine receptor [2] = target: D(2) dopamine receptor (Rattus norvegicus, UniProt P61169)
# Chain of D(2) dopamine receptor (Rattus norvegicus, UniProt P61169) (P61169 whole entry): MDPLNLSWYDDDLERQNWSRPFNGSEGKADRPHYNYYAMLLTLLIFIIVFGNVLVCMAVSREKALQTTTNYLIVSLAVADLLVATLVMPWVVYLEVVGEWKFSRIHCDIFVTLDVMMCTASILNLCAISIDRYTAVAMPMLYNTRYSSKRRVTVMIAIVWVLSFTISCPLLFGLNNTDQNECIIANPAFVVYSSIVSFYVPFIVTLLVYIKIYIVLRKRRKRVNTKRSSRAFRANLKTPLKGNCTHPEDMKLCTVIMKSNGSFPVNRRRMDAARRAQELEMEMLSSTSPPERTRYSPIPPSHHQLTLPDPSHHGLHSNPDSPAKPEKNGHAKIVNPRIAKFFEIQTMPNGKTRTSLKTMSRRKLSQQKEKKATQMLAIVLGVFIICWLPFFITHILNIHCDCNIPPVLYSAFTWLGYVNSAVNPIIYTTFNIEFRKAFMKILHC
# [3] = target: T1, 5-hydroxytryptamine receptor 1A (Rattus norvegicus, UniProt P19327)
# T1 sequence (P19327 whole entry): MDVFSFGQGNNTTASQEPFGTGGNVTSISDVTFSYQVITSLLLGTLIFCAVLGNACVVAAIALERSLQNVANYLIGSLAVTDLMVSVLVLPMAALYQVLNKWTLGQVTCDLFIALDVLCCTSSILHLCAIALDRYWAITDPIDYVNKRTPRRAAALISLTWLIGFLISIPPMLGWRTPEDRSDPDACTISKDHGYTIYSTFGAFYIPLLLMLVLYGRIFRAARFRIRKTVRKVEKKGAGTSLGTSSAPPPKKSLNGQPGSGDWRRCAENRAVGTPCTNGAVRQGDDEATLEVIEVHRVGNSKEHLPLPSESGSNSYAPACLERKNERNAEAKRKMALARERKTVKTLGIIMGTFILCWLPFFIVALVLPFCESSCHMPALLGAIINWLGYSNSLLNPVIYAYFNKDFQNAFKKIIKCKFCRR
# Histamine H1 receptor = Histamine H1 receptor (Cavia porcellus, UniProt P31389)
# Chain of Histamine H1 receptor (P31389 whole entry): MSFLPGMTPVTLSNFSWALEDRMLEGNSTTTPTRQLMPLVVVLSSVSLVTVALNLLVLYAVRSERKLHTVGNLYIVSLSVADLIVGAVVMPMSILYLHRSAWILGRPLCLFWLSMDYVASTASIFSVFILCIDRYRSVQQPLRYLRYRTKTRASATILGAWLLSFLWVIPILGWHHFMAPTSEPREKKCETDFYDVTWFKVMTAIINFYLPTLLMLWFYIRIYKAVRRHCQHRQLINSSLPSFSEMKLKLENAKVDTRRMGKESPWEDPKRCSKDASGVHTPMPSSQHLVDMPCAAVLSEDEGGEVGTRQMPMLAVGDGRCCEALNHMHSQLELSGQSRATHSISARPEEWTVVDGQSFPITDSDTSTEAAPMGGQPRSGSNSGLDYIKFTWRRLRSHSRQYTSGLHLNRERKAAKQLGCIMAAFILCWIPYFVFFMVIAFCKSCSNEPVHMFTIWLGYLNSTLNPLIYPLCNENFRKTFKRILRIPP
# Description: Displacement of [3H]-mepyramine from histamine H1 receptor in guinea pig cerebellum homogenates incubated for 60 mins by liquid scintillation counting
# [4] = target: T2, 5-hydroxytryptamine receptor 2C (Rattus norvegicus, UniProt P08909)
# T2 sequence (P08909 whole entry): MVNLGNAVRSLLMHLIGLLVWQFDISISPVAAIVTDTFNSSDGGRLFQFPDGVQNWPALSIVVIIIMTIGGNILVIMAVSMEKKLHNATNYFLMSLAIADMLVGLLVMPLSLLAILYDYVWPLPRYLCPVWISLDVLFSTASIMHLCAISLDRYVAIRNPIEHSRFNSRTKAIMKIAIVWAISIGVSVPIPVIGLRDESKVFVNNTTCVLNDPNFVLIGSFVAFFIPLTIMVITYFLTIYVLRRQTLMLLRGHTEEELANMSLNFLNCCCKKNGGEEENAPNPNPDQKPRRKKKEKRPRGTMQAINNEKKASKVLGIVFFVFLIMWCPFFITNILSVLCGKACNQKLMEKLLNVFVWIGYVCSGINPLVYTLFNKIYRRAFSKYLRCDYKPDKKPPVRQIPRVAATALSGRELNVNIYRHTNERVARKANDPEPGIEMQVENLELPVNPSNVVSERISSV
# D(3) dopamine receptor = D(3) dopamine receptor (Rattus norvegicus, UniProt P19020)
# Chain of D(3) dopamine receptor (P19020 whole entry): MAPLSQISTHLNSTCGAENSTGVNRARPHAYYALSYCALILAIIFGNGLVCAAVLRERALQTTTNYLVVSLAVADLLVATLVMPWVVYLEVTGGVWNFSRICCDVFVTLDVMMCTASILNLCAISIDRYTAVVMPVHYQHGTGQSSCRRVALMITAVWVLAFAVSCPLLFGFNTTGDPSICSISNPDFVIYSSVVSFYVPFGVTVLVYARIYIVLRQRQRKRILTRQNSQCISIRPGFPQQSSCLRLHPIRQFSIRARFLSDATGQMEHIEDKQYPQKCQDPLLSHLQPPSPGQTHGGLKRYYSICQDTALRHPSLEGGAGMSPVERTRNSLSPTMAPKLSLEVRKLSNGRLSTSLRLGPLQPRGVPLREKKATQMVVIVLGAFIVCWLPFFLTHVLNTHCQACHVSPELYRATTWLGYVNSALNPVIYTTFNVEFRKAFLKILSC
# [5] = target: T3, Adrenergic receptor alpha-1 (Rattus norvegicus, UniProt P15823+P23944+P43140)
# T3 sequence (P15823 whole entry): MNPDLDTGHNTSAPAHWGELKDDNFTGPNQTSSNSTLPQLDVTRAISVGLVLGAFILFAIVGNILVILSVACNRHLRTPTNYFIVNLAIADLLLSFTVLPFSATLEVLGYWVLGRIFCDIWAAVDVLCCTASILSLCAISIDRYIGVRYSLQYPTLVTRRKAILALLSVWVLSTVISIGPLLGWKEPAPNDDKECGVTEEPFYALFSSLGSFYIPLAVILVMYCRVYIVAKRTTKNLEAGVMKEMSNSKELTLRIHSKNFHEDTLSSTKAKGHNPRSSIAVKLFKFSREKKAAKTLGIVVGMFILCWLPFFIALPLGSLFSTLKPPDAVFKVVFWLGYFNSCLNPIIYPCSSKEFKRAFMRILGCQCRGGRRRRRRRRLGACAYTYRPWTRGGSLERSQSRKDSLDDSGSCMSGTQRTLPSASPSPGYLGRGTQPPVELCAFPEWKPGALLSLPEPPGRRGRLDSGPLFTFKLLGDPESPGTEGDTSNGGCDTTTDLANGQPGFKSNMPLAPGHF
# T3 sequence (P23944 whole entry): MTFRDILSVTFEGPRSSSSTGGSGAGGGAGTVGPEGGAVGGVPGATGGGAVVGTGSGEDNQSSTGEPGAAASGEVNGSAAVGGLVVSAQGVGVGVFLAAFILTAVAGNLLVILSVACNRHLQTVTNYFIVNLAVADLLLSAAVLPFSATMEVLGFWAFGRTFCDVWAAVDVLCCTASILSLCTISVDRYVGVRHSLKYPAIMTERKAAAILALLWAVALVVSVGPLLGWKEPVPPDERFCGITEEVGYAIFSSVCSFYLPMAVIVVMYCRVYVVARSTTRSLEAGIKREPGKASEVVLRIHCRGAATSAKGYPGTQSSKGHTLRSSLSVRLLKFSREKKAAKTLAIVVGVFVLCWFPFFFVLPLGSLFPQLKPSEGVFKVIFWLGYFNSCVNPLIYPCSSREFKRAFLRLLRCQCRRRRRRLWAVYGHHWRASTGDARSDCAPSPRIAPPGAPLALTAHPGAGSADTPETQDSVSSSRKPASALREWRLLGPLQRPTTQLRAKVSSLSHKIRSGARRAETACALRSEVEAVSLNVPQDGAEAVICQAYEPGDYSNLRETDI
# T3 sequence (P43140 whole entry): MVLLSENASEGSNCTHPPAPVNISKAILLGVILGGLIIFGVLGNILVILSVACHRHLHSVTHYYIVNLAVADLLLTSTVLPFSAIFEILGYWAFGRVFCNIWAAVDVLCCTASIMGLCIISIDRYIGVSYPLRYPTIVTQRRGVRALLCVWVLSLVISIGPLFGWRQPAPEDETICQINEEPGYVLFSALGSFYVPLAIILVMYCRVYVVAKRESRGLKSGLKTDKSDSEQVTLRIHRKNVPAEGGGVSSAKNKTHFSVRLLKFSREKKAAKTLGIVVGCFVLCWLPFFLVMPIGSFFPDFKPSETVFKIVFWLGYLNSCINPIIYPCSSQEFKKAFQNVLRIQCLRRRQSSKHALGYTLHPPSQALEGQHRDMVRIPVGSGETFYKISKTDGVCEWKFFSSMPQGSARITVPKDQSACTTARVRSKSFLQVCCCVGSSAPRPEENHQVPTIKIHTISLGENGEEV
# Description: Displacement of [3H]-prazosin from alpha-1 adrenergic receptor in rat cerebral cortex homogenates incubated for 60 mins by liquid scintillation counting
# [6] = target: T4, 5-hydroxytryptamine receptor 6 (Homo sapiens, UniProt P50406); test: biochemical
# T4 sequence (P50406 whole entry, canonical isoform): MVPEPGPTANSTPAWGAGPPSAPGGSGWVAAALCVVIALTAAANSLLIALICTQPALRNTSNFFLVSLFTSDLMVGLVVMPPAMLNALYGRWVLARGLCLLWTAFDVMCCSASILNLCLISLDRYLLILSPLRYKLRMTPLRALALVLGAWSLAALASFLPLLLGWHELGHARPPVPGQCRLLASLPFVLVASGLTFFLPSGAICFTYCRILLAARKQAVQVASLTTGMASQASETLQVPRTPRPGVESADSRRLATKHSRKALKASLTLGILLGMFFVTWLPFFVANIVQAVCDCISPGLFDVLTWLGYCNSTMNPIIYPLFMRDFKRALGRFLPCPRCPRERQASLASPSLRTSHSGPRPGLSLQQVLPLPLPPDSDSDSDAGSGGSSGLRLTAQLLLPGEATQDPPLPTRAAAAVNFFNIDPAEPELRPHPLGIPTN
# D(2) dopamine receptor [7] = target: D(2) dopamine receptor (Homo sapiens, UniProt P14416); test: Antagonist activity at dopamine D2 receptor long isoform (unknown origin) expressed in HEK293 cells assessed as inhibition of dopamine-induced calcium flux at 10 uM after 15 mins by calcium 4-dye based FLIPR assay relative to control; type: functional, cell-based
# Chain of D(2) dopamine receptor (Homo sapiens, UniProt P14416) (P14416 whole entry, canonical isoform): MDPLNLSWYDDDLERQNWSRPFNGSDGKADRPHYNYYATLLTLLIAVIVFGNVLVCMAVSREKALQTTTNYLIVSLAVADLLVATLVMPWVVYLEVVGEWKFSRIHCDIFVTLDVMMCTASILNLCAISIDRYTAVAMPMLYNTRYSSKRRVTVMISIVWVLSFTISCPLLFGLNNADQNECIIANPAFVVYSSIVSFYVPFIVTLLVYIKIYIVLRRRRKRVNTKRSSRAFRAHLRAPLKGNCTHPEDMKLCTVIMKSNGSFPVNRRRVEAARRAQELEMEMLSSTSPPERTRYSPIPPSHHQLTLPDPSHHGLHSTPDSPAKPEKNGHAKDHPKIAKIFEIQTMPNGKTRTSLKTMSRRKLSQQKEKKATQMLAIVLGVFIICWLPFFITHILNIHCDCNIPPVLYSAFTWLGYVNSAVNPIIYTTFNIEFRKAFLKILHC
# [8] = target: 5-hydroxytryptamine receptor 2A (Homo sapiens, UniProt P28223); test: Agonist activity at serotonin 5-HT2A receptor (unknown origin) expressed in HEK293 cells assessed as induction of calcium flux at 10 uM after 60 mins by calcium 4-dye based FLIPR assay relative to control; type: functional, cell-based
# Chain of 5-hydroxytryptamine receptor 2A (Homo sapiens, UniProt P28223) (P28223 whole entry): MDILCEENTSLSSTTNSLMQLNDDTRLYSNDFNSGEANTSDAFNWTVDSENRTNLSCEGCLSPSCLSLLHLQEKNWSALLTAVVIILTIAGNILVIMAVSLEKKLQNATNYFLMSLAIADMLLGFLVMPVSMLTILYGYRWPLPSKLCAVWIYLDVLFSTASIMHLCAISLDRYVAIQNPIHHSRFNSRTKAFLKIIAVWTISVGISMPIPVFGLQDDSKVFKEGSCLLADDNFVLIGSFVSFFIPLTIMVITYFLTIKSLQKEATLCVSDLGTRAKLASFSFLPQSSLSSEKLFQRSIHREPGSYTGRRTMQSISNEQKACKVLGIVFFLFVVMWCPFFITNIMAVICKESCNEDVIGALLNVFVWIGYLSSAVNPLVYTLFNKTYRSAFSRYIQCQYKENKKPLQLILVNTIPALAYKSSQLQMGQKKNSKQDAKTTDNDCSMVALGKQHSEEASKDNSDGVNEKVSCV
# [9] = target: T4, 5-hydroxytryptamine receptor 6; test: Agonist activity at serotonin 5-HT6 receptor (unknown origin) expressed in HEK293 cells assessed as induction of calcium flux at 10 uM after 60 mins by calcium 4-dye based FLIPR assay relative to control; type: functional, cell-based
# Rattus norvegicus [10] = test: Cognitive enhancing effect in Sprague-Dawley rat assessed as effect on total exploration time for familiar objects in acquisition trial at 0.3 mg/kg, po administered 1 hr measured for 3 mins by novel object recognition test; type: functional, organism-based
# [11] = target: Voltage-gated inwardly rectifying potassium channel KCNH2 (Homo sapiens, UniProt Q12809)
# Chain of Voltage-gated inwardly rectifying potassium channel KCNH2 (Q12809 whole entry): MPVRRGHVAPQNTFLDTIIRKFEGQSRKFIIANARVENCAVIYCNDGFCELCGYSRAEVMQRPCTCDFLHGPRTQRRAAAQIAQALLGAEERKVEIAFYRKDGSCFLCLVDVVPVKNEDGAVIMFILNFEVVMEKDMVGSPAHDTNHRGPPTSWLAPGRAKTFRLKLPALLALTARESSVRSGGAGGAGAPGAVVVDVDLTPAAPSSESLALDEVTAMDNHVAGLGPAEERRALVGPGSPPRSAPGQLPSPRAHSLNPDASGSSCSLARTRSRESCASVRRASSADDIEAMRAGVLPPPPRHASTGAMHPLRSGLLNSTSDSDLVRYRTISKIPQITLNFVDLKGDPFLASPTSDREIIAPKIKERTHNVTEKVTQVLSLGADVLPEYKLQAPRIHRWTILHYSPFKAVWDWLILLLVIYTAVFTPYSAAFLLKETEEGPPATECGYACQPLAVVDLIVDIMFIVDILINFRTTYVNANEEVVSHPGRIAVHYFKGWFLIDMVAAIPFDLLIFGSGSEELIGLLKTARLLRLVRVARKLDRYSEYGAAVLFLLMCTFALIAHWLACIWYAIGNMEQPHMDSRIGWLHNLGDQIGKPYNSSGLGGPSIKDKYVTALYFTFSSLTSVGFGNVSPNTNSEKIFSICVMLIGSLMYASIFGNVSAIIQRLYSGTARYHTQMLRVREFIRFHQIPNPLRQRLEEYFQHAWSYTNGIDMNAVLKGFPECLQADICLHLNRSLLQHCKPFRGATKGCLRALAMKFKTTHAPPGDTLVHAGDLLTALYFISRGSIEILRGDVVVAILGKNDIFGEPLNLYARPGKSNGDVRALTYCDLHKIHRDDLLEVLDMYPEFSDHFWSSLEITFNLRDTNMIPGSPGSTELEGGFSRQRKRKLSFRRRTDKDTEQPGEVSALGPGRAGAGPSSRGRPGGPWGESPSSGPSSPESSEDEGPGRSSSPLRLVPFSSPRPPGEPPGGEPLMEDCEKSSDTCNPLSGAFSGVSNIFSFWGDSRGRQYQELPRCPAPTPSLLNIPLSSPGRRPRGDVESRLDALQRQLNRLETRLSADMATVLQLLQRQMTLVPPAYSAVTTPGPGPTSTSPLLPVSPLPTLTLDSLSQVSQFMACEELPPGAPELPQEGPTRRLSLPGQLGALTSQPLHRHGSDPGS
# Description: Inhibition of human ERG expressed in HEK293 cells at -50 mV holding potential by patch clamp assay
# Mus musculus [12] = test: Induction of catalepsy in po dosed Kunming mouse measured after 60 secs; type: organism-based; details: in vivo, 1 min
# [13] = Therapeutic index, ratio of ED50 for catalepsy in Kunming mouse to ED50 for apomorphine-induced climbing in Kunming mouse; type: toxicity, organism-based; details: in vivo, read-out: Ratio ED50
# [14] = Therapeutic index, ratio of ED50 for catalepsy in Kunming mouse to ED50 for MK-801-induced hyperactivity in Kunming mouse; type: toxicity, organism-based; details: in vivo, read-out: Ratio ED50
# Mus musculus [15] = organism: Mus musculus; test: animal or person; details: Kunming, po
# Description: Antipsychotic activity in po dosed Kunming mouse assessed as reduction in apomorphine-induced climbing pretreated for 30 mins followed by apomorphine injection measured at 10 to 30 mins post dose
# Mus musculus [16] = organism: Mus musculus; test: animal or person; details: Kunming, po; remark: listed apart in the source
# Description: Antipsychotic activity in po dosed Kunming mouse assessed as reduction in MK-801-induced hyperactivity pretreated for 60 mins followed by MK-801 challenge measured for 90 mins
# Rattus norvegicus [17] = test: Antipsychotic activity in po dosed Sprague-Dawley rat assessed as reduction in conditioned avoidance response measured at 90 mins post single dose; type: functional; details: 1.5 h
# Mus musculus [18] = test: Induction of weight gain in Kunming mouse at 0.03 to 0.27 mg/kg, po administered for 28 days measured every day during compound dosing; type: organism-based; details: in vivo, 672 h
# Rattus norvegicus [19] = test: Cognitive enhancing effect in Sprague-Dawley rat assessed as effect on total exploration time for familiar objects in acquisition trial at 0.2 mg/kg, po administered 1 hr measured for 3 mins by novel object recognition test; type: functional, organism-based
SMILES,Ki [1] [nM],Ki (D(2) dopamine receptor [2]) [nM],Ki [3] [nM],other results
O=C1CCc2cc(CCCCN3CCC(c4noc5cc(F)ccc45)CC3)cc3c2N1CC3,19.3,9.9,11.7,Ki (Histamine H1 receptor): 712 nM; Ki [4]: 540 nM; Ki (D(3) dopamine receptor): 54.9 nM; Ki [5]: 99.3 nM; Ki [6]: 17.7 nM
CN1CCc2cc(Cl)c(O)cc2[C@@H](c2ccccc2)C1,–,–,–,inhibition (D(2) dopamine receptor [7]): 99%
NCCc1c[nH]c2ccc(O)cc12,–,–,–,Activity [8]: 94.5%; Activity [9]: 98%
CCN(C)C(=O)Oc1cccc([C@H](C)N(C)C)c1,–,–,–,Activity (Rattus norvegicus [10]): Active
O=C1CCc2cc(C(O)CCCCN3CCC(c4noc5cc(F)ccc45)CC3)cc3c2N1CC3 (stereo not drawn),0.4,8.4,12,Ki (Histamine H1 receptor): 43.5 nM; Ki [4]: 33.7 nM; Ki (D(3) dopamine receptor): 116 nM; Ki [5]: 596 nM; Ki [6]: 29.5 nM
O=C1CCc2cc(C(O)CCCN3CCC(c4noc5cc(F)ccc45)CC3)cc3c2N1CC3 (stereo not drawn),69.5,–,22.5,Ki (Histamine H1 receptor): 339 nM; Ki [4]: 742 nM; Ki (D(3) dopamine receptor): 45.4 nM; IC50 [11]: 1900 nM; Ki [5]: 339 nM; Ki [6]: 6.36 nM
O=C(CCCN1CCC(O)(c2ccc(Cl)cc2)CC1)c1ccc(F)cc1 [HALOPERIDOL],–,–,–,ED50 (Mus musculus [12]): 0.12 mg/kg; selectivity ratio [13]: 1.09; selectivity ratio [14]: 0.75; ED50 (Mus musculus [15]): 0.11 mg/kg; ED50 (Mus musculus [16]): 0.16 mg/kg
O=C(CCCN1CCC(c2noc3cc(F)ccc23)CC1)c1cc2c3c(c1)CCN3C(=O)CC2,9.9,10.3,12,Ki (Histamine H1 receptor): 421 nM; Ki [4]: 610 nM; Ki (D(3) dopamine receptor): 61.3 nM; Ki [5]: 491.3 nM; Ki [6]: 241 nM
Cc1nc2n(c(=O)c1CCN1CCC(c3noc4cc(F)ccc34)CC1)CCCC2 [RISPERIDONE],–,–,–,ED50 (Mus musculus [12]): 0.51 mg/kg; ED50 (Rattus norvegicus [17]): 0.52 mg/kg; Activity (Mus musculus [18]): Toxic; Activity (Rattus norvegicus [19]): inactive; ED50 (Mus musculus [15]): 0.28 mg/kg; ED50 (Mus musculus [16]): 0.011 mg/kg
O=C1CCc2cc(CCCCCN3CCC(c4noc5cc(F)ccc45)CC3)cc3c2N1CC3,58.3,43.2,54,–
O=C1CCc2cc(CCCN3CCN(c4cccc(Cl)c4Cl)CC3)cc3c2N1CCC3,186,582,196,–
O=C1CCc2cc(CCCN3CCC(c4noc5cc(F)ccc45)CC3)cc3c2N1CCC3,73.9,44.2,58.6,–
N#Cc1ccc(N2CCN(CCC(=O)c3cc4c5c(c3)CCN5C(=O)CC4)CC2)c(F)c1,388,574,474,–
O=C(CCN1CCN(c2ccc(Cl)cc2)CC1)c1cc2c3c(c1)CCC(=O)N3CCC2,720,> 2000,1630,–
CC1CC(=O)N2CCCc3cc(C(=O)CCCN4CCC(c5noc6cc(F)ccc56)CC4)cc1c32 (stereo not drawn),32.2,62.1,42.3,–
O=C1CCc2cc(CCCCN3CCN(c4nsc5ccccc45)CC3)cc3c2N1CCC3,83.9,154,98,–
O=C1CCc2cc(CCCCN3CCN(c4cccc(Cl)c4Cl)CC3)cc3c2N1CCC3,97.8,394,194,–
O=C1CCc2cc(C(O)CCN3CCC(c4noc5cc(F)ccc45)CC3)cc3c2N1CCC3 (stereo not drawn),19.9,28.4,19.6,–
O=C1CCc2cc(C(O)CCCN3CCC(c4noc5cc(F)ccc45)CC3)cc3c2N1CCC3 (stereo not drawn),24.2,29.7,79.1,–
O=C(CCN1CCN(c2ccccn2)CC1)c1cc2c3c(c1)CCC(=O)N3CCC2,675,1660,1660,–
O=C1CCc2cc(CCCN3CCC(c4noc5cc(F)ccc45)CC3)cc3c2N1CC3,29.3,46.5,38.7,–
